Results on five molecules are retold here after ChEMBL document CHEMBL4020769, “Gemcitabine anti-proliferative activity significantly enhanced upon conjugation with cell-penetrating peptides” (Bioorg Med Chem Lett, 2017).

Peptide text beside a SMILES is read from it. * marks the point of attachment. X1 = O=C(CCS*)Nc1ccn([C@@H]2O[C@H](CO)[C@@H](O)C2(F)F)c(=O)n1

In data set [1] the test system is Caco-2. As to the kind of experiment: Antiproliferative activity against human Caco2 cells after 48 hrs by sulforhodamine B assay. Conditions: Caco-2, 48 h. The class given is functional, cell-based. A general note: In SRB staining, fixed cells bind dye roughly in proportion to their protein.
The nature of data set [2]: Prodrug conversion in pH 7.4 phosphate buffered saline assessed as gemcitabine release by HPLC method.
In data set [3] the test system is HT-29. The experiment in a line: Antiproliferative activity against human HT-29 cells after 48 hrs by sulforhodamine B assay. The data set is classed as functional, cell-based. Conditions: for IC50: HT-29, 48 h.
Data set [4] can be described thus: Half life in pH 7.4 phosphate buffered saline by HPLC method. The data set is classed as physicochemical.
The test system of data set [5] is MKN-28. The experiment in a line: Antiproliferative activity against human MKN28 cells after 48 hrs by sulforhodamine B assay. The class given is functional, cell-based. As to conditions: MKN-28, 48 h.
The subject of data set [6] is HT-29. The experiment in a line: Growth inhibition of human HT-29 cells after 48 hrs by sulforhodamine B assay relative to control. The data set is classed as functional.

For the molecule `CC[C@H](C)[C@H](NC(=O)[C@H](CCCNC(=N)N)NC(=O)[C@H](CCCNC(=N)N)NC(=O)[C@H](CCCNC(=N)N)NC(=O)[C@H](CC(C)C)NC(=O)[C@@H](NC(=O)[C@@H](NC(=O)[C@H](CC(C)C)NC(=O)[C@H](CC(C)C)NC(=O)[C@@H](N)CSSCCC(=O)Nc1ccn([C@@H]2O[C@H](CO)[C@@H](O)C2(F)F)c(=O)n1)[C@@H](C)CC)[C@@H](C)CC)C(=O)N[C@@H](CCCNC(=N)N)C(=O)N[C@@H](CCCCN)C(=O)N[C@@H](CCC(N)=O)C(=O)N[C@@H](C)C(=O)N[C@@H](Cc1cnc[nH]1)C(=O)N[C@@H](C)C(=O)N[C@@H](Cc1cnc[nH]1)C(=O)N[C@@H](CO)C(=O)N[C@@H](CCCCN)C(=O)O` (H-C(X1)LLIILRRRIRKQAHAHSK-OH), the IC50 was over 100 µM in data set [1], 45.2 µM in data set [3] and 20.7 µM in data set [5]. Also, in data set [2], the Drug metabolism entry is “Metabolite detected”. The Activity entry in data set [3] was “Dose-dependent effect”. Besides, in data set [4], the half-life is 42 h.

Turning to `CC[C@H](C)[C@H](NC(=O)[C@H](CCCCN)NC(=O)[C@@H](NC(=O)[C@H](CCC(N)=O)NC(=O)[C@H](CCCNC(=N)N)NC(=O)[C@@H](N)CSSCCC(=O)Nc1ccn([C@@H]2O[C@H](CO)[C@@H](O)C2(F)F)c(=O)n1)[C@@H](C)CC)C(=O)N[C@@H](Cc1c[nH]c2ccccc12)C(=O)N[C@@H](Cc1ccccc1)C(=O)N[C@@H](CCC(N)=O)C(=O)N[C@@H](CC(N)=O)C(=O)N[C@@H](CCCNC(=N)N)C(=O)N[C@@H](CCCNC(=N)N)C(=O)N[C@@H](CCSC)C(=O)N[C@@H](CCCCN)C(=O)N[C@@H](Cc1c[nH]c2ccccc12)C(=O)N[C@@H](CCCCN)C(=O)N[C@@H](CCCCN)C(=O)O`, the IC50 in data set [1] was found to be 67.1 µM; in data set [3], 47.3 µM; in data set [5], 47 µM. Moreover, in data set [2], the Drug metabolism result was “Metabolite detected”. In addition, the Activity entry in data set [3] was “Dose-dependent effect”. Further, the half-life in data set [4] was 230 h.

Take `Nc1ccn([C@@H]2O[C@H](CO)[C@@H](O)C2(F)F)c(=O)n1` [GEMCITABINE]: the “growth inhibition (GI)” value in data set [6] came to 30%. For the same molecule, the IC50 in data set [1], in data set [3] and in data set [5] was over 100 µM each time.

`CC[C@H](C)[C@H](NC(=O)[C@H](CCCCN)NC(=O)[C@@H](NC(=O)[C@H](CCC(N)=O)NC(=O)[C@H](CCCNC(=N)N)NC(=O)[C@@H](N)CS)[C@@H](C)CC)C(=O)N[C@@H](Cc1c[nH]c2ccccc12)C(=O)N[C@@H](Cc1ccccc1)C(=O)N[C@@H](CCC(N)=O)C(=O)N[C@@H](CC(N)=O)C(=O)N[C@@H](CCCNC(=N)N)C(=O)N[C@@H](CCCNC(=N)N)C(=O)N[C@@H](CCSC)C(=O)N[C@@H](CCCCN)C(=O)N[C@@H](Cc1c[nH]c2ccccc12)C(=O)N[C@@H](CCCCN)C(=O)N[C@@H](CCCCN)C(=O)O`: the IC50 in data set [1], in data set [3] and in data set [5] was over 100 µM each time.

Consider H-CLLIILRRRIRKQAHAHSK-OH, for which the IC50 in data set [1], in data set [3] and in data set [5] was over 100 µM throughout.

What is called IC50 is the concentration that inhibits the measured activity by half. A lower IC50 goes with higher potency. For orientation: half-life means how long it takes for the measured level to halve.
